Laboratory results: patent publication US5424290A, “Biologically active peptides and uses therefor” (Magainin Pharmaceuticals Inc., priority 1992, dated 1995)
Residues, ends and D or L forms follow the SMILES beside them.

Tests used:
Assay type in all cases: cell-based
[1] = test system: E. coli ATCC 25922; experiment: Minimal Inhibitory Concentration, microtiter broth dilution antibacterial assay; details: Mueller Hinton broth, 16-20 hours at 37° C., lowest concentration giving a clear well
Description: (§1) Table I, which follows, indicates the Minimal Inhibitory Concentration (MIC) in μg/ml of Peptides (SEQ ID NO:1) through (SEQ ID NO:4), (SEQ ID NO:6) through (SEQ ID NO:13), (SEQ ID NO:16), (SEQ ID NO:20), (SEQ ID NO:21) and (SEQ ID NO:23) against S. aureus strain ATCC 25923, P. aeruginosa strain ATCC 27853, E. coli strain 25922, and Candida albicans. The procedure for the antibacterial assay is based upon the guidelines of the National Committee for Clinical Laboratory Standards, Document M7-T2, Volume 8, No. 8, 1988. Stock solutions of the peptides hereinabove mentioned are prepared at a concentration of 512 μg/ml in sterile deionized distilled water and stored at […]. Each peptide is a C-terminal amide and may or may not be acetylated at the N-terminus. An acetyl group at the N-terminus is indicated by an X. The stock peptide solution is diluted in serial dilutions (1:2) down the wells of a microtiter plate so that the final concentrations of peptides in the wells are 0.25, 0.50, 1, 2, 4, 8, 16, 32, 64, 128, and 256 μg/ml. 1-5×10^5 CFUs/ml of either S. aureus ATCC 25923, E. coli ATCC 25922, P. aeruginosa ATCC 27853, or Candida albicans were added to the wells in full strength Mueller Hinton broth (BBL 11443) from a mid-log culture. The inoculum is standardized spectrophotometrically at 600 nm and is verified by colony counts. The plates are incubated for 16-20 hours at 37° C., and the minimal inhibitory concentration (MIC) for each peptide is determined. Minimal inhibitory concentration is defined as the lowest concentration of peptide which produces a clear well in the microtiter plate.

[2] = test system: S. aureus strain ATCC 25923; experiment: as above; details: S. aureus ATCC 25923; Mueller Hinton broth; 16-20 hours at 37° C.; lowest concentration giving a clear well
Description: as §1

[3] = test system: Candida albicans; experiment: Minimal Inhibitory Concentration, microtiter broth dilution assay; details: Mueller Hinton broth, 16-20 hours at 37° C., lowest concentration giving a clear well
Description: as §1

| Structure (SMILES) | Minimal Inhibitory Concentration E. coli [1] | Minimal Inhibitory Concentration S. aureus [2] | Minimal Inhibitory Concentration C. albicans [3] |
| --- | --- | --- | --- |
| CC[C@H](C)[C@H](NC(=O)CN)C(=O)N[C@H](C(=O)NCC(=O)N[C@@H](CCCCN)C(=O)N[C@@H](Cc1ccccc1)C(=O)N[C@@H](CC(C)C)C(=O)N[C@@H](CCCCN)C(=O)N[C@@H](CCCCN)C(=O)N[C@@H](C)C(=O)N[C@@H](CCCCN)C(=O)N[C@@H](CCCCN)C(=O)N[C@@H](Cc1ccccc1)C(=O)NCC(=O)N[C@@H](CCCCN)C(=O)N[C@@H](C)C(=O)N[C@@H](Cc1ccccc1)C(=O)N[C@H](C(=O)N[C@@H](CCCCN)C(=O)N[C@H](C(=O)N[C@@H](CC(C)C)C(=O)N[C@@H](CCCCN)C(=O)N[C@@H](CCCCN)C(N)=O)[C@@H](C)CC)C(C)C)[C@@H](C)CC [(SEQ ID NO: 16)-NH2] (H-GIIGKFLKKAKKFGKAFVKILKK-NH2) | 8 µg/mL | 4 µg/mL | 64 µg/mL |
| CC[C@H](C)[C@H](NC(=O)[C@H](C)NC(=O)[C@H](CCCCN)NC(=O)CNC(=O)[C@@H](NC(=O)[C@H](CCCCN)NC(=O)[C@H](CCCCN)NC(=O)[C@H](C)NC(=O)[C@H](CCCCN)NC(=O)[C@H](CCCCN)NC(=O)[C@H](CC(C)C)NC(=O)[C@@H](NC(=O)[C@H](CCCCN)NC(=O)CNC(=O)[C@@H](N)Cc1ccccc1)[C@@H](C)CC)[C@@H](C)CC)C(=O)N[C@H](C(=O)N[C@@H](CCCCN)C(=O)N[C@@H](Cc1ccccc1)C(=O)N[C@@H](CC(C)C)C(=O)N[C@@H](CCCCN)C(=O)N[C@@H](CCCCN)C(N)=O)C(C)C [(SEQ ID NO: 23)-NH2] (H-FGKILKKAKKIGKAIVKFLKK-NH2) | 32 µg/mL | 16 µg/mL | 128 µg/mL |
| CC[C@H](C)[C@H](NC(C)=O)C(=O)NCC(=O)N[C@@H](CCCCN)C(=O)N[C@@H](Cc1ccccc1)C(=O)N[C@@H](CC(C)C)C(=O)N[C@@H](CCCCN)C(=O)N[C@@H](CCCCN)C(=O)N[C@@H](C)C(=O)N[C@@H](CCCCN)C(=O)N[C@@H](CCCCN)C(=O)N[C@@H](Cc1ccccc1)C(=O)NCC(=O)N[C@@H](CCCCN)C(=O)N[C@@H](C)C(=O)N[C@@H](Cc1ccccc1)C(=O)N[C@H](C(=O)N[C@@H](CCCCN)C(=O)N[C@H](C(=O)N[C@@H](CC(C)C)C(=O)N[C@@H](CCCCN)C(=O)N[C@@H](CCCCN)C(N)=O)[C@@H](C)CC)C(C)C [X- (SEQ ID NO: 1)-NH2] (Ac-IGKFLKKAKKFGKAFVKILKK-NH2) | 8 µg/mL | 8 µg/mL | 128 µg/mL |
